Drawing on patent US20030232797A1, “Novel derivatives of androstane and androstene with ascorbic acid and use thereof in treating or preventing various conditions, diseases, and disorders” (priority 2002, published 2003), this text covers Solubility in ethanol and Solubility in water for one compound.

Each structure is given as a SMILES string. Structures can show the parent of a compound that is named as a salt.

As to `C[C@]12CC[C@H](OP(=O)(O)OC3=C(O)C(C(O)CO)OC3=O)CC1=CCC1C2CC[C@@]2(C)C1CC[C@@H]2OP(=O)(O)OC1=C(O)C(C(O)CO)OC1=O` (stereo partly drawn) [Diascorbyl diphosphate of androst-5ene-3β,17β-diol, tetrasodium salt], the Solubility in ethanol result (ethanol) was “Slightly soluble”. In addition, under “water, 50 mg sample, 50 microliter portions every 10 minutes, ultrasonic bath”, the Solubility in water is recorded as 10.6 %, w/w.
